Measured values as given in US12145923B2, “Tetrahydroisoquinoline compound, preparation method therefor, pharmaceutical composition containing same, and use thereof” (SHANGHAI INSTITUTE OF MATERIA MEDICA, CHINESE ACADEMY OF …, priority 2018, dated 2024).
Where “and” joins values, the source holds several entries; their conditions need not be identical. Equal values may be shown once.

Legend:
[1] = system: tumor necrosis factor-α secretion in RAW 264.7 cells; assay: Inhibition of LPS-stimulated tumor necrosis factor-α secretion in RAW 264.7 cells (ELISA); assay type: cell-based, mouse; details: Mus musculus, RAW264.7, 4 h, read-out: Tumor necrosis factor-α inhibition rate/%
[2] = system: RAW 264.7 cells; assay: Cytotoxicity on RAW 264.7 cells (CCK-8 method); assay type: cell-based, mouse
Method: Mouse RAW 264.7 cells were purchased from American Type Culture Collection (Manassas, VA, USA), and cultivated in DMEM culture medium (Hyclone, South Logan, UT, USA) containing 10% fetal bovine serum (Hyclone, South Logan, UT, USA). Cells were collected and counted before use, and inoculated in a 96-well plate (Corning, NY, USA) at 1×10^5/well. […] 20 μl of CCK-8 solution (Dojindo, Kumamoto, Japan) was added at 30 min before the end of the culture. After the cultivation was ended, the absorbance OD value was measured at 450 nm (reference 650 nm) on amicroplate reader (Molecular Devices, Sunnyvale, CA, USA). The toxicity of the compound on RAW 264.7 cells was calculated by dividing the OD value of the test sample by the OD value of the cell control well, which was labeled as the cell survival rate M %.

[3] = system: TNF-α secretion in PBMC; assay: Inhibition of LPS-stimulated TNF-α secretion in PBMC (ELISA); assay type: cell-based; details: Homo sapiens, PBMC; for inhibition at 10 µM / inhibition at 1 µM: read-out: Inhibition rate %
From the text: According to the difference in cell density in human blood, PBMC (peripheral blood mononuclear cell, PBMC) was directly separated and purified by gradient centrifugation using lymphocyte separation fluid. The cell type was mononuclear cells in blood, mainly including lymphocytes (T/B), monocytes, macrophages, dendritic cells and other minor cell types, of which lymphocytes account for a large part, which can directly in vitro simulate the blood immune environment.
PBMC cells isolated from human blood were implanted into 96-well plates at 2*10^5/ml; compounds in gradients were added, with at least three replicates for each gradient; After the PBMCs were incubated at 37° C., 5% CO2 for 1 hour, LPS was added (the final concentration was 10 ug/ml) to stimulate PBMC to express TNF-α, and incubated for another 18-20 h at 37° C., 5% C02. The 96-well plate was collected. The background control with no stimulant and stimulation control wells were also set, with a total volume of 200 μl. The culture supernatant was collected by centrifugation, and the expression level of TNF-α in the culture supernatant was detected by ELISA.

| Compound | inhibition at 0.5 µM [1] | inhibition at 5 µM [1] | inhibition at 50 µM [1] | Cell survival rate/% ([2]; RAW 264.7, 0.5 μM) | Cell survival rate/% ([2]; RAW 264.7, 5 μM) | Cell survival rate/% ([2]; RAW 264.7, 50 μM) | inhibition at 10 µM [3] | IC50 [3] | inhibition at 1 µM [3] |
| --- | --- | --- | --- | --- | --- | --- | --- | --- | --- |
| CCOc1cc2c(cc1OC)CCN(C(=O)CS(C)(=O)=O)[C@H]2Cc1c[nH]c2ccccc12 [(S)-C15, (S)-1-(1-((1H-indol-3-yl)methyl)-7-ethoxy-6-methoxy-3,4-dihydroisoquinoline-2(1H)-yl)-2-(methanesulfonyl)ethane-1-one] | 18% | -4.5% | -37.7% | 107.3% | 110.5% | 101.2% | -23.9% | – | – |
| CCOc1cc2c(cc1OC)CCN(C=O)[C@H]2Cc1c[nH]c2ccc(C)cc12 [(S)-C17, (S)-7-ethoxy-6-methoxy-1-((5-methyl-1H-indol-3-yl)methyl)-3,4-dihydroisoquinoline-2(1H)-formaldehyde] | -32.2% | -33.7% | -13.4% | 101.7% | 87.3% | 103.9% | 18.8% | – | – |
| CCOc1cc2c(cc1OC)CCN(C=O)[C@H]2CCc1c[nH]c2ccccc12 [(S)-A4, (S)-1-(2-(1H-indol-3-yl)ethyl)-7-ethoxy-6-methoxy-3,4-dihydroisoquinoline-2(1H)-formaldehyde] | – | – | – | 103% | 100.8% | 98.1% | – | – | – |
| COc1cc2c(cc1OCC1CC1)[C@H](CCc1c[nH]c3cc(C)ccc13)N(C=O)CC2 [(S)-C4, (S)-7-(cyclopropylmethoxy)-6-methoxy-1-(2-(6-methyl-1H-indol-3-yl)ethyl)-3,4-dihydroisoquinoline-2(1H)-formaldehyde] | -30.1% | -25.6% | 54.5% | 97.6% | 71.8% | 77.3% | 76.9% | 2.12 µM | 32% |
| CCOc1cc2c(cc1OC)CCN(C=O)C2Cc1c[nH]c2ccccc12 (stereo not drawn) [Compound C10, 1-((1H-indol-3-yl)methyl)-7-ethoxy-6-methoxy-3,4-dihydroisoquinoline-2(1H)-formaldehyde] | – | – | – | 119.5% | 111.4% | 94% | – | – | – |
| CCOc1cc2c(cc1OC)CCN(C=O)C2CCc1c[nH]c2ccccc12 (stereo not drawn) [Compound A4, 1-(2-(1H-indol-3-yl)ethyl)-7-ethoxy-6-methoxy-3,4-dihydroisoquinoline-2(1H)-formaldehyde] | – | – | – | 100.6% | 113.4% | 95.3% | – | – | – |
| COc1cc2c(cc1OC)[C@H](Cc1c[nH]c3ccccc13)N(C(=O)CS(C)(=O)=O)CC2 [(S)-C13, (S)-1-(1-((1H-indol-3-yl)methyl)-6,7-dimethoxy-3,4-dihydroisoquinoline-2(1H)-yl)-2-(methanesulfonyl)ethane-1-one] | -3% | -13.7% | -37.3% | 111.2% | 91.4% | 101.7% | 29.9% | – | – |
| CCOc1cc2c(cc1OC)CCN(C(=O)COC)[C@H]2Cc1c[nH]c2ccccc12 [(S)-C16, (S)-1-(1-((1H-indol-3-yl)methyl)-7-ethoxy-6-methoxy-3,4-dihydroisoquinoline-2(1H)-yl)-2-methoxyethane-1-one] | 2.6% | 12.7% | 10.4% | 123.2% | 133.1% | 113.1% | 1.89% | – | – |
| COc1cc2c(cc1OCC1CC1)C(CCc1c[nH]c3ccccc13)N(C=O)CC2 (stereo not drawn) [Compound A3, 1-(2-(1H-indol-3-yl)ethyl)-7-(cyclopropyl-methoxy)-6-methoxy-3,4-dihydroisoquinoline-2(1H)-formaldehyde] | -0.5% | -15.5% | 27.3% | 96.9% | 108.2% | 94% | 65.7% | 5.69 µM | 0.84% |
| CCOc1cc2c(cc1OC)CCN(C=O)[C@H]2Cc1c[nH]c2ccccc12 [(S)-C10, (S)-1-((1H-indol-3-yl)methyl)-7-ethoxy-6-methoxy-3,4-dihydroisoquinoline-2(1H)-formaldehyde] | – | – | – | 89.1% | 84.6% | 104.1% | – | – | – |
| COCC(=O)N1CCc2cc(OC)c(OC)cc2C1Cc1c[nH]c2ccccc12 (stereo not drawn) [Compound C11, 1-(1-((1H-indol-3-yl)methyl)-6,7-dimethoxy-3,4-dihydroisoquinoline-2(1H)-yl)-2-methoxyethane-1-one] | -12.7% | -11.9% | 20.1% | 97.9% | 91.2% | 87.3% | 50% | – | 39.9% |
| COc1cc2c(cc1OC)[C@@H](CCc1c[nH]c3ccccc13)N(C=O)CC2 [(R)-A1, (R)-1-(2-(1H-indol-3-yl)ethyl)-6,7-dimethoxy-3,4-dihydroisoquinoline-2(1H)-formaldehyde] | – | – | – | 102.7% and 135.9% | 106.2% and 110.1% | 89.3% and 122.5% | – | – | – |
